Two compounds from PubChem BioAssay AID1259407 (Chemical Carcinogenesis Research Information System (CCRIS), 2018) can be followed below.

Activity calls are given as the source filed them. No rule for the calls is given here.

The subject of the data set is CCRIS mutagenicity, Ames/micronucleus/aberration tests. As to the kind of experiment: CCRIS mutagenicity studies.

`Nc1ccc2ccccc2c1N=Nc1ccccc1`: the mutagenic call runs as follows: (Test System: AMES SALMONELLA TYPHIMURIUM, Strain/Indicator: TA98, Metabolic Activation: HAMSTER, LIVER, S-9, AROCLOR 1254 (2.5-20%), Method: PREINCUBATION) “inactive; negative”; (Test System: AMES SALMONELLA TYPHIMURIUM, Strain/Indicator: TA98, Metabolic Activation: HAMSTER, LIVER, S-9, AROCLOR 1254, Method: STANDARD PLATE) “inactive; negative”; (Test System: AMES SALMONELLA TYPHIMURIUM, Strain/Indicator: TA98, Metabolic Activation: NONE, Method: STANDARD PLATE) “inactive; negative”; (Test System: AMES SALMONELLA TYPHIMURIUM, Strain/Indicator: TA98, Metabolic Activation: RAT, LIVER, S-9, AROCLOR 1254, Method: STANDARD PLATE) “inactive; negative”; (Test System: AMES SALMONELLA TYPHIMURIUM, Strain/Indicator: TA100, Metabolic Activation: HAMSTER, LIVER, S-9, AROCLOR 1254 (2.5-20%), Method: PREINCUBATION) “inactive; negative”; (Test System: AMES SALMONELLA TYPHIMURIUM, Strain/Indicator: TA100, Metabolic Activation: HAMSTER, LIVER, S-9, AROCLOR 1254, Method: STANDARD PLATE) “inactive; negative”. Moreover, the mutagenic call reads like this: (Test System: AMES SALMONELLA TYPHIMURIUM, Strain/Indicator: TA100, Metabolic Activation: NONE, Method: STANDARD PLATE) “inactive; negative”; (Test System: AMES SALMONELLA TYPHIMURIUM, Strain/Indicator: TA100, Metabolic Activation: RAT, LIVER, S-9, AROCLOR 1254, Method: STANDARD PLATE) “inactive; negative”; (Test System: AMES SALMONELLA TYPHIMURIUM, Strain/Indicator: TA102, Metabolic Activation: HAMSTER, LIVER, S-9, AROCLOR 1254 (10%), Method: PREINCUBATION) “inactive; negative”; (Test System: AMES SALMONELLA TYPHIMURIUM, Strain/Indicator: TA102, Metabolic Activation: NONE, Method: PREINCUBATION) “inactive; negative”; (Test System: AMES SALMONELLA TYPHIMURIUM, Strain/Indicator: TA102, Metabolic Activation: RAT, LIVER, S-9, AROCLOR 1254 (10%), Method: PREINCUBATION) “inactive; negative”; (Test System: AMES SALMONELLA TYPHIMURIUM, Strain/Indicator: TA1535, Metabolic Activation: HAMSTER, LIVER, S-9, AROCLOR 1254, Method: STANDARD PLATE) “inactive; negative”. Besides, the mutagenic call was “inactive; negative” (Test System: AMES SALMONELLA TYPHIMURIUM, Strain/Indicator: TA1535, Metabolic Activation: NONE, Method: STANDARD PLATE); “inactive; negative” (Test System: AMES SALMONELLA TYPHIMURIUM, Strain/Indicator: TA1535, Metabolic Activation: RAT, LIVER, S-9, AROCLOR 1254, Method: STANDARD PLATE); “inactive; negative” (Test System: AMES SALMONELLA TYPHIMURIUM, Strain/Indicator: TA1537, Metabolic Activation: HAMSTER, LIVER, S-9, AROCLOR 1254, Method: STANDARD PLATE); “inactive; negative” (Test System: AMES SALMONELLA TYPHIMURIUM, Strain/Indicator: TA1537, Metabolic Activation: NONE, Method: STANDARD PLATE); “inactive; negative” (Test System: AMES SALMONELLA TYPHIMURIUM, Strain/Indicator: TA1537, Metabolic Activation: RAT, LIVER, S-9, AROCLOR 1254, Method: STANDARD PLATE); “inactive; negative” (Test System: AMES SALMONELLA TYPHIMURIUM, Strain/Indicator: TA1538, Metabolic Activation: HAMSTER, LIVER, S-9, AROCLOR 1254, Method: STANDARD PLATE). Besides, the mutagenic call runs as follows: (Test System: AMES SALMONELLA TYPHIMURIUM, Strain/Indicator: TA1538, Metabolic Activation: NONE, Method: STANDARD PLATE) “inactive; negative”; (Test System: AMES SALMONELLA TYPHIMURIUM, Strain/Indicator: TA1538, Metabolic Activation: RAT, LIVER, S-9, AROCLOR 1254, Method: STANDARD PLATE) “inactive; negative”; (Test System: MOUSE LYMPHOMA, Strain/Indicator: L5178Y (TK+/TK-), Metabolic Activation: NONE, Method: SUSPENSION/PLATE) “active; positive. reevaluation of results: equivocal”.

On to `CCCCCCCOc1ccccc1NC(=O)OC(C)CN(CC)CC` (centres undefined), for which the mutagenic call reads like this: (Test System: AMES SALMONELLA TYPHIMURIUM, Strain/Indicator: TA98, Metabolic Activation: MOUSE, LIVER, S-9, AROCLOR 1254, Method: PREINCUBATION) “inactive; negative”; (Test System: AMES SALMONELLA TYPHIMURIUM, Strain/Indicator: TA98, Metabolic Activation: NONE, Method: PREINCUBATION) “inactive; negative”; (Test System: AMES SALMONELLA TYPHIMURIUM, Strain/Indicator: TA100, Metabolic Activation: MOUSE, LIVER, S-9, AROCLOR 1254, Method: PREINCUBATION) “inactive; negative”; (Test System: AMES SALMONELLA TYPHIMURIUM, Strain/Indicator: TA100, Metabolic Activation: NONE, Method: PREINCUBATION) “inactive; negative”; (Test System: AMES SALMONELLA TYPHIMURIUM, Strain/Indicator: TA1535, Metabolic Activation: MOUSE, LIVER, S-9, AROCLOR 1254, Method: PREINCUBATION) “inactive; negative”; (Test System: AMES SALMONELLA TYPHIMURIUM, Strain/Indicator: TA1535, Metabolic Activation: NONE, Method: PREINCUBATION) “inactive; negative”. Also, the mutagenic call is “inactive; negative” (Test System: AMES SALMONELLA TYPHIMURIUM, Strain/Indicator: TA1538, Metabolic Activation: MOUSE, LIVER, S-9, AROCLOR 1254, Method: PREINCUBATION); “inactive; negative” (Test System: AMES SALMONELLA TYPHIMURIUM, Strain/Indicator: TA1538, Metabolic Activation: NONE, Method: PREINCUBATION); “inactive; negative” (Test System: AMES SALMONELLA TYPHIMURIUM, Strain/Indicator: TA1978, Metabolic Activation: MOUSE, LIVER, S-9, AROCLOR 1254, Method: PREINCUBATION); “inactive; negative” (Test System: AMES SALMONELLA TYPHIMURIUM, Strain/Indicator: TA1978, Metabolic Activation: NONE, Method: PREINCUBATION); “inactive; negative” (Test System: E. COLI, Strain/Indicator: CM611 UVRA/LEXA, Metabolic Activation: MOUSE, LIVER, S-9, AROCLOR 1254, Method: PREINCUBATION); “inactive; negative” (Test System: E. COLI, Strain/Indicator: CM611 UVRA/LEXA, Metabolic Activation: NONE, Method: PREINCUBATION). Also, the mutagenic call is, setting by setting: (Test System: E. COLI, Strain/Indicator: WP2, Metabolic Activation: MOUSE, LIVER, S-9, AROCLOR 1254, Method: PREINCUBATION) “inactive; negative”; (Test System: E. COLI, Strain/Indicator: WP2, Metabolic Activation: NONE, Method: PREINCUBATION) “inactive; negative”; (Test System: E. COLI, Strain/Indicator: WP2 UVRA, Metabolic Activation: MOUSE, LIVER, S-9, AROCLOR 1254, Method: PREINCUBATION) “inactive; negative”; (Test System: E. COLI, Strain/Indicator: WP2 UVRA, Metabolic Activation: NONE, Method: PREINCUBATION) “inactive; negative”; (Test System: E. COLI, Strain/Indicator: WP67 UVRA/POLA, Metabolic Activation: MOUSE, LIVER, S-9, AROCLOR 1254, Method: PREINCUBATION) “inactive; negative”; (Test System: E. COLI, Strain/Indicator: WP67 UVRA/POLA, Metabolic Activation: NONE, Method: PREINCUBATION) “inactive; negative”.
